Test results published in patent publication US10538522B2, “Brassinosteroid mimetics” (The Regents of the University of California, priority 2015, dated 2020).

What was measured:
[1] = tested on: seedlings treated with an inhibitor of BR synthesis (brassinazole); assay: Hypocotyl length of seedlings with brassinosteroid synthesis inhibited by brassinazole (FIG. 1, FIG. 3); type: in vivo, Arabidopsis
Experimental: Seedlings were treated with an inhibitor of BR synthesis (brassinazole; (BZ)). […] This is not consistent with what is seen for Bikinin, which is a constitutive activator of BR signaling and would be independent of BR synthesis (i.e. treatment with BZ would not result in inhibition of hypocotyl length in the presence of BZ).
In FIG. 1, brassinosteroid production was limited by addition of brassinazole (BZ, which is a chemical inhibitor of brassinosteroid biosynthesis). […] In stark contrast, addition of brassinolide plus mimetic severely curtails this burst in growth because mimetic prevents the full inhibition of BIN2.

bri1-6 mutant seedling = assay: Growth of mutant seedling defective in brassinosteroid receptor BRI1 (FIG. 4); type: in vivo
Arabidopsis seedlings = assay: Hypocotyl length / plant height of seedlings treated with brassinosteroid mimetic (FIG. 1, FIG. 2); type: in vivo; conditions: versus untreated plants
Experimental: (A) Arabidopsis seedlings were grown for 7 days in light in the presence of increasing concentrations of a brassinosteroid mimetic of the disclosure. (B) a photo of seedlings grown at 0 and 20 μM of brassinosteroid mimetic.
The brassinosteroid mimetics of the disclosure were tested and shown to block ethylene response by hyperactivating brassinosteroid signaling. The application of any one of the brassinosteroid mimetics of the disclosure, which are all closely related, results in massive increases in plant size. […] Additionally, reduction of internal concentrations of brassinosteroids by inhibition of brassinosteroid biosynthesis reduces the effects of the mimetic on growth. In FIG. 1, one can see the promotive effects of F1874-0108 (inset), a brassinosteroid mimetic of the disclosure, on plant height, with chemical treated plants being almost 100% taller than untreated plants. Hyperactivation of brassinosteroid signaling represents an effective means to increase plant biomass and increase the capability of plants with regard to disease resistance and other brassinosteroid regulated phenomena.

CC(C)[C@H](C)[C@@H](O)[C@H](O)[C@@H](C)[C@H]1CC[C@H]2[C@@H]3COC(=O)[C@H]4C[C@H](O)[C@H](O)C[C@]4(C)[C@H]3CC[C@]12C [brassinolide]
increase in length of BZ seedlings ([1]; BZ treated, exogenous brassinolide added back): ~400%

O=C(O)CCC(=O)Nc1ccc(Br)cn1 [Bikinin]
activation of BR pathway / hypocotyl growth (bri1-6 mutant seedling): promotion of long hypocotyls independent of BR

CCOC(=O)CSc1ncnc2c1cnn2-c1ccccc1 [F1874-0108]
plant height, chemical treated plants taller than untreated plants (Arabidopsis seedlings): ~100%
seedling length versus BZ treated only ([1]; BZ treated, no exogenous brassinolide added): substantially longer

CC(O)(c1ccccc1)C(Cc1ccc(Cl)cc1)n1cncn1 (centres unmarked) [brassinazole]
hypocotyl length ([1]; FIG. 3, BZ alone): shortening of the hypocotyls
